Measurements taken from article PMC9578392, “Safety, Tolerability, and Pharmacokinetics of the Novel Antiviral Agent Ensitrelvir Fumaric Acid, a SARS-CoV-2 3CL Protease Inhibitor, in Healthy Adults” (Antimicrobial Agents and Chemotherapy, 2022).
Where two headings read alike, the source gives them in different places.

What was measured:
[1] = Single ascending oral dose pharmacokinetics (part 1, plasma and urine, fasted); type: in vivo, human; conditions: for Feu0-144: urine; for AUC(0-inf) / AUC(0-t) / Cmax / MRT / Vd/F / half-life / Tmax / CL renal: human, oral; for AUC(0-inf) / AUC(0-t) / Cmax / MRT / Vd/F / half-life / Tmax: plasma; for Vd/F: read-out: Vz/F; for CL renal: urine and plasma
[2] = Blood lipid profiling, single-dose part (Supplementary Table 3); type: in vivo, human; conditions: for HDL-C, Mean (SD): baseline mean 460.0; for LDL-C, Mean (SD): baseline mean 993.3
[3] = cohort/dose A/20 mg, single dose, geometric mean (%CV)
[4] = cohort/dose B/70 mg, single dose, geometric mean (%CV)
[5] = cohort/dose C/250 mg, single dose, geometric mean (%CV)
[6] = cohort/dose D/500 mg, single dose, geometric mean (%CV)
[7] = cohort/dose E/1000 mg, single dose, geometric mean (%CV)
[8] = cohort/dose J/2000 mg, single dose, geometric mean (%CV)
[9] = Cohort A 20 mg single dose, Day 2
[10] = Cohort A 20 mg single dose, Day 4
[11] = Cohort A 20 mg single dose, Day 7/Early termination
[12] = Cohort A 20 mg single dose, Follow up

Cn1cnc(Cn2c(=O)[nH]/c(=N\c3cc4cn(C)nc4cc3Cl)n(Cc3cc(F)c(F)cc3F)c2=O)n1 [Ensitrelvir, ensitrelvir fumaric acid]
CL/F [1, 3]: 0.219 (24.3) L/h
Feu0-144 [1, 3]: 12.9 (14.6) %
CL/F [1, 4]: 0.241 (15.7) L/h
Feu0-144 [1, 4]: 14.7 (27.4) %
CL/F [1, 5]: 0.274 (16.2) L/h
Feu0-144 [1, 5]: 16.0 (16.6) %
CL/F [1, 6]: 0.252 (16.1) L/h
Feu0-144 [1, 6]: 21.8 (15.4) %
CL/F [1, 7]: 0.297 (35.5) L/h
Feu0-144 [1, 7]: 19.4 (29.5) %
CL/F [1, 8]: 0.315 (22.2) L/h
AUC(0-inf) [1, 3]: 91.4 µg·h/mL
AUC(0-t) [1, 3]: 82 µg·h/mL
Cmax [1, 3]: 1700 ng/mL
MRT [1, 3]: 61.8 h
Vd/F [1, 3]: 13.5 L
half-life ([1]; cohort/dose A/20 mg, single dose, geometric mean (%CV), read-out: t1/2,z (converted)): 42.6 h
Tmax ([1]; cohort/dose A/20 mg, single dose, median (min, max), read-out: Tmax): 2.5 h
AUC(0-inf) [1, 4]: 291 µg·h/mL
AUC(0-t) [1, 4]: 289 µg·h/mL
Cmax [1, 4]: 5200 ng/mL
MRT [1, 4]: 67.3 h
Vd/F [1, 4]: 15.9 L
half-life ([1]; cohort/dose B/70 mg, single dose, geometric mean (%CV), read-out: t1/2,z (converted)): 45.7 h
Tmax ([1]; cohort/dose B/70 mg, single dose, median (min, max), read-out: Tmax): 1.5 h
AUC(0-inf) [1, 5]: 914 µg·h/mL
AUC(0-t) [1, 5]: 907 µg·h/mL
Cmax [1, 5]: 15200 ng/mL
MRT [1, 5]: 73.4 h
Vd/F [1, 5]: 17 L
half-life ([1]; cohort/dose C/250 mg, single dose, geometric mean (%CV), read-out: t1/2,z (converted)): 43.1 h
Tmax ([1]; cohort/dose C/250 mg, single dose, median (min, max), read-out: Tmax): 2.5 h
AUC(0-inf) [1, 6]: 1990 µg·h/mL
AUC(0-t) [1, 6]: 1980 µg·h/mL
Cmax [1, 6]: 32600 ng/mL
MRT [1, 6]: 68.2 h
Vd/F [1, 6]: 15.3 L
half-life ([1]; cohort/dose D/500 mg, single dose, geometric mean (%CV), read-out: t1/2,z (converted)): 42.2 h
Tmax ([1]; cohort/dose D/500 mg, single dose, median (min, max), read-out: Tmax): 2 h
AUC(0-inf) [1, 7]: 3370 µg·h/mL
AUC(0-t) [1, 7]: 3340 µg·h/mL
Cmax [1, 7]: 63800 ng/mL
MRT [1, 7]: 70.3 h
Vd/F [1, 7]: 20.6 L
half-life ([1]; cohort/dose E/1000 mg, single dose, geometric mean (%CV), read-out: t1/2,z (converted)): 48.1 h
Tmax ([1]; cohort/dose E/1000 mg, single dose, median (min, max), read-out: Tmax): 2.75 h
AUC(0-inf) [1, 8]: 6350 µg·h/mL
AUC(0-t) [1, 8]: 6310 µg·h/mL
Cmax [1, 8]: 96900 ng/mL
MRT [1, 8]: 67.4 h
Vd/F [1, 8]: 19.6 L
half-life ([1]; cohort/dose J/2000 mg, single dose, geometric mean (%CV), read-out: t1/2,z (converted)): 43.1 h
Tmax ([1]; cohort/dose J/2000 mg, single dose, median (min, max), read-out: Tmax): 4 h
half-life ([1]; single dose 20 to 2,000 mg, range across dose groups, read-out: geometric mean terminal elimination half-life (t1/2,z)): 42.2 to 48.1 h
Tmax ([1]; single dose 20 to 2,000 mg, range across dose groups, read-out: median time to maximum plasma concentration (Tmax)): 1.5 to 4 h
CL renal [1, 3]: 0.523 mL/min
CL renal [1, 4]: 0.668 mL/min
CL renal [1, 5]: 0.845 mL/min
CL renal [1, 6]: 1.04 mL/min
CL renal [1, 7]: 1.11 mL/min
Triglyceride, Mean (SD) ([2]; Cohort A 20 mg single dose, Day 2, baseline mean 0.8825): 1.0032 mmol/L
Cholesterol, Mean (SD) ([2]; Cohort A 20 mg single dose, Day 2, baseline mean 4.1635): 4.2842 mmol/L
HDL-C, Mean (SD) [2, 9]: 458.3 (47.9) mg/L
LDL-C, Mean (SD) [2, 9]: 1048.3 mg/L
Triglyceride, Mean (SD) ([2]; Cohort A 20 mg single dose, Day 4, baseline mean 0.8825): 1.3643 mmol/L
Cholesterol, Mean (SD) ([2]; Cohort A 20 mg single dose, Day 4, baseline mean 4.1635): 4.2668 mmol/L
HDL-C, Mean (SD) [2, 10]: 446.7 (63.1) mg/L
LDL-C, Mean (SD) [2, 10]: 1026.7 mg/L
Triglyceride, Mean (SD) ([2]; Cohort A 20 mg single dose, Day 7/Early termination, baseline mean 0.8825): 1.3852 mmol/L
Cholesterol, Mean (SD) ([2]; Cohort A 20 mg single dose, Day 7/Early termination, baseline mean 4.1635): 4.1290 mmol/L
HDL-C, Mean (SD) [2, 11]: 440.0 (66.9) mg/L
LDL-C, Mean (SD) [2, 11]: 966.7 mg/L
Triglyceride, Mean (SD) ([2]; Cohort A 20 mg single dose, Follow up, baseline mean 0.8825): 0.7037 mmol/L
Cholesterol, Mean (SD) ([2]; Cohort A 20 mg single dose, Follow up, baseline mean 4.1635): 3.9048 mmol/L
HDL-C, Mean (SD) [2, 12]: 445.0 (70.1) mg/L
LDL-C, Mean (SD) [2, 12]: 923.3 mg/L
Triglyceride, Mean (SD) ([2]; Cohort B 70 mg single dose, Day 2, baseline mean 1.0330): 1.1478 mmol/L
Cholesterol, Mean (SD) ([2]; Cohort B 70 mg single dose, Day 2, baseline mean 4.0987): 4.1463 mmol/L
